For twelve compounds, MIC results are on record in patent US20250235434A1, “RIFABUTIN ANALOGS FOR THE TREATMENT OF DISEASE” (BIOVERSYS AG, priority 2022, published 2025).

Common to all, as to format: cell-based
Test [1] concerns S. aureus (UAMS-1625 strain). The experiment in a line: MIC by broth microdilution against S. aureus. Particulars: Staphylococcus aureus, 20 h, read-out: MIC S. aureus.
For test [2], the system named is A. baumannii (HUMC1 strain). The experiment in a line: MIC by broth microdilution against A. baumannii. Particulars: Acinetobacter baumannii, RPMI medium supplemented with 10% FCS, 35° C. for 20 hours, visual reading. On the technique in general: In broth dilution the organism is exposed to a series of concentrations in liquid medium.
Test [3] concerns M. abscessus (ATCC 19977). The experiment in a line: MIC by broth microdilution against M. abscessus. Particulars: Mycobacteroides abscessus, ATCC19977, 20 h, read-out: MIC M. abscessus.
In test [4] the test system is M. smegmatis (ATCC 700084). The experiment in a line: MIC against M. smegmatis (resazurin assay). Particulars: Mycolicibacterium smegmatis, ATCC700084, Middlebrook 7H9 + ADC, 90% growth inhibition, 20 h.
The test system of a further test is M. xenopi (ATCC 19250). The experiment in a line: MIC against M. xenopi (resazurin assay). To be noted: Mycobacterium xenopi, ATCC19250, 168 h, Middlebrook 7H9 + ADC, 90% growth inhibition, 7 days.
A further test relates to M. avium (ATCC 25291). The experiment in a line: MIC against M. avium (resazurin assay). Particulars: Mycobacterium avium, ATCC25291, 168 h, Middlebrook 7H9 + ADC, 90% growth inhibition, 7 days.
Another test deals with M. kansasii (ATCC 12478). The experiment in a line: MIC against M. kansasii (resazurin assay). To be noted: Mycobacterium kansasii, ATCC12478, 168 h, Middlebrook 7H9 + ADC, 90% growth inhibition, 7 days. On the technique in general: The colour change of resazurin is a common sign of viable cells or microbes.
For test [5], the system named is M. tuberculosis H37Rv (ATCC 27294). The experiment in a line: microbe, parasite or virus in culture. To be noted: Mycobacterium tuberculosis, 120 h.
Where [6] appears, read: ATCC 19977, Middlebrook 7H9 broth with ADC supplement, visual reading.

Values after ≈ are worked out from the molar mass of the structure shown. Where two headings read alike, the source gives them in different places. Where only a bound is given, the exact number is not on record here.

For the compound `CO[C@H]1/C=C/O[C@@]2(C)Oc3c(C)c(O)c4c(c3C2=O)C2=NC3(CCN(CC(C)C)CC3)NC2=C(NC(=O)/C(C)=C\C=C\[C@H](C)[C@H](O)[C@@H](C)[C@@H](O)[C@@H](C)[C@H](OC(=O)CN2CCN(C)CC2)[C@@H]1C)C4=O` [Compound 6], the MIC in test [1] was 0.03 µg/mL (≈ 0.0317 µM); in test [2] it was no more than 0.002 µg/mL; in test [3] (setting [6]) it was 1 µg/mL (≈ 1.06 µM); in test [4] it was 0.03 µg/mL; in the test with M. xenopi (ATCC 19250), 0.04 µg/mL; in the test with M. avium (ATCC 25291) it was 1.3 µg/mL. The MIC with M. kansasii (ATCC 12478) turned out to be 0.01 µg/mL; in test [5], 0.008 µg/mL (≈ 0.00846 µM).

As to `CO[C@H]1/C=C/O[C@@]2(C)Oc3c(C)c(O)c4c(c3C2=O)C2=NC3(CCN(CC(C)C)CC3)NC2=C(NC(=O)/C(C)=C\C=C\[C@H](C)[C@H](O)[C@@H](C)[C@@H](O)[C@@H](C)[C@H](OC(=O)CNCCN2CCOCC2)[C@@H]1C)C4=O` [Compound 10], the MIC in test [1] was 0.03 µg/mL (≈ 0.0308 µM); in test [2], no more than 0.002 µg/mL; in test [3] (setting [6]) it was 1 µg/mL (≈ 1.03 µM); in test [4], 0.1 µg/mL; in the test on M. xenopi (ATCC 19250), 0.01 µg/mL; with M. avium (ATCC 25291), 1 µg/mL. Besides, the MIC in the test with M. kansasii (ATCC 12478) amounted to 0.015 µg/mL; in test [5], 0.008 µg/mL (≈ 0.0082 µM).

In the case of `CO[C@H]1/C=C/O[C@@]2(C)Oc3c(C)c(O)c4c(c3C2=O)C2=NC3(CCN(CC(C)C)CC3)NC2=C(NC(=O)/C(C)=C\C=C\[C@H](C)[C@H](O)[C@@H](C)[C@@H](O)[C@@H](C)[C@H](OC(=O)CNCCCN(C)C)[C@@H]1C)C4=O` [Compound 12], the MIC was 0.03 µg/mL (≈ 0.0317 µM) in test [1]; no more than 0.002 µg/mL in test [2]; 1 µg/mL (≈ 1.06 µM) in test [3] (setting [6]); 0.03 µg/mL in test [4]; 0.01 µg/mL in the test on M. xenopi (ATCC 19250); 1.4 µg/mL with M. avium (ATCC 25291). The MIC in the test with M. kansasii (ATCC 12478) came to 0.0055 µg/mL; in test [5], 0.003 µg/mL (≈ 0.00317 µM).

On to `CO[C@H]1/C=C/O[C@@]2(C)Oc3c(C)c(O)c4c(c3C2=O)C2=NC3(CCN(CC(C)C)CC3)NC2=C(NC(=O)/C(C)=C\C=C\[C@H](C)[C@H](O)[C@@H](C)[C@@H](O)[C@@H](C)[C@H](OC(=O)CN2CCC(n3c(=O)[nH]c5ccccc53)CC2)[C@@H]1C)C4=O` [Compound 18], for which the MIC came out at 0.5 µg/mL (≈ 0.471 µM) in test [1]; 0.03 µg/mL (≈ 0.0282 µM) in test [2]; 0.5 µg/mL (≈ 0.471 µM) in test [3] (setting [6]); 0.09 µg/mL in test [4]; 0.01 µg/mL in the test with M. xenopi (ATCC 19250); 1.3 µg/mL in the test with M. avium (ATCC 25291). Besides, the MIC was 0.01 µg/mL with M. kansasii (ATCC 12478) and 0.002 µg/mL (≈ 0.00188 µM) in test [5].

`CO[C@H]1/C=C/O[C@@]2(C)Oc3c(C)c(O)c4c(c3C2=O)C2=NC3(CCN(CC(C)C)CC3)NC2=C(NC(=O)/C(C)=C\C=C\[C@H](C)[C@H](O)[C@@H](C)[C@@H](O)[C@@H](C)[C@H](OC(=O)CN2CCC(n3c(=O)[nH]c5cc(Cl)ccc53)CC2)[C@@H]1C)C4=O` [Compound 19]: the MIC was 4 µg/mL (≈ 3.65 µM) in test [1]; 0.125 µg/mL (≈ 0.114 µM) in test [2]; 0.5 µg/mL (≈ 0.456 µM) in test [3] (setting [6]); 0.24 µg/mL in test [4]; 0.03 µg/mL in the test on M. xenopi (ATCC 19250); 4 µg/mL in the test on M. avium (ATCC 25291). In addition, the figures for the MIC (in the test with M. kansasii (ATCC 12478); in test [5]) were 0.015 µg/mL and 0.003 µg/mL (≈ 0.00274 µM), respectively.

In the case of `CO[C@H]1/C=C/O[C@@]2(C)Oc3c(C)c(O)c4c(c3C2=O)C2=NC3(CCN(CC(C)C)CC3)NC2=C(NC(=O)/C(C)=C\C=C\[C@H](C)[C@H](O)[C@@H](C)[C@@H](O)[C@@H](C)[C@H](OC(=O)CN2CCC3(CC2)C(=O)NCN3c2ccccc2)[C@@H]1C)C4=O` [Compound 20], the MIC in test [1] was determined as 0.5 µg/mL (≈ 0.465 µM); in test [2], 0.03 µg/mL (≈ 0.0279 µM); in test [3] (setting [6]), 0.25 µg/mL (≈ 0.232 µM); in test [4], 0.1 µg/mL; in the test on M. xenopi (ATCC 19250), 0.03 µg/mL; in the test on M. avium (ATCC 25291), 0.5 µg/mL. Moreover, the MIC with M. kansasii (ATCC 12478) worked out at 0.01 µg/mL; in test [5], 0.003 µg/mL (≈ 0.00279 µM).

Regarding `CO[C@H]1/C=C/O[C@@]2(C)Oc3c(C)c(O)c4c(c3C2=O)C2=NC3(CCN(CC(C)C)CC3)NC2=C(NC(=O)/C(C)=C\C=C\[C@H](C)[C@H](O)[C@@H](C)[C@@H](O)[C@@H](C)[C@H](OC(=O)CN2CCC(O)(Cc3ccccc3)CC2)[C@@H]1C)C4=O` [Compound 24], the MIC in test [1] turned out to be 0.125 µg/mL (≈ 0.121 µM); in test [2] it was 0.016 µg/mL (≈ 0.0154 µM); in test [3] (setting [6]) it was 1 µg/mL (≈ 0.965 µM); in test [4], 0.1 µg/mL; with M. xenopi (ATCC 19250) it was 0.01 µg/mL; with M. avium (ATCC 25291) it was 2 µg/mL. Moreover, the MIC came to 0.01 µg/mL in the test with M. kansasii (ATCC 12478) and 0.004 µg/mL (≈ 0.00386 µM) in test [5].

On to `CO[C@H]1/C=C/O[C@@]2(C)Oc3c(C)c(O)c4c(c3C2=O)C2=NC3(CCN(CC(C)C)CC3)NC2=C(NC(=O)/C(C)=C\C=C\[C@H](C)[C@H](O)[C@@H](C)[C@@H](O)[C@@H](C)[C@H](OC(=O)CN2CCC(Oc3ccccc3)CC2)[C@@H]1C)C4=O` [Compound 25], for which the MIC in test [1] is 1 µg/mL (≈ 0.978 µM); in test [2], 0.06 µg/mL (≈ 0.0587 µM); in test [3] (setting [6]) it was 1 µg/mL (≈ 0.978 µM); in test [4], 0.1 µg/mL; in the test with M. xenopi (ATCC 19250) it was 0.02 µg/mL; in the test on M. avium (ATCC 25291) it was 0.8 µg/mL. In addition, the MIC in the test with M. kansasii (ATCC 12478) stood at 0.02 µg/mL; in test [5] it was 0.008 µg/mL (≈ 0.00783 µM).

Take `CO[C@H]1/C=C/O[C@@]2(C)Oc3c(C)c(O)c4c(c3C2=O)C2=NC3(CCN(CC(C)C)CC3)NC2=C(NC(=O)/C(C)=C\C=C\[C@H](C)[C@H](O)[C@@H](C)[C@@H](O)[C@@H](C)[C@H](OC(=O)CN2CCC(N3CCCCC3)CC2)[C@@H]1C)C4=O` [Compound 26]: the MIC in test [1] is 0.06 µg/mL (≈ 0.0592 µM); in test [2] it was no more than 0.002 µg/mL; in test [3] (setting [6]), 0.5 µg/mL (≈ 0.493 µM); in test [4] it was 0.04 µg/mL; in the test on M. xenopi (ATCC 19250) it was 0.06 µg/mL; in the test on M. avium (ATCC 25291) it was 1.15 µg/mL. Also, the MIC was determined as 0.02 µg/mL in the test with M. kansasii (ATCC 12478) and 0.007 µg/mL (≈ 0.00691 µM) in test [5].

Turning to `CO[C@H]1/C=C/O[C@@]2(C)Oc3c(C)c(O)c4c(c3C2=O)C2=NC3(CCN(CC(C)C)CC3)NC2=C(NC(=O)/C(C)=C\C=C\[C@H](C)[C@H](O)[C@@H](C)[C@@H](O)[C@@H](C)[C@H](OC(=O)CN2CCC3C(CCCN3Cc3ccccc3)C2)[C@@H]1C)C4=O` (stereo partly drawn) [Compound 28], the MIC turned out to be 0.125 µg/mL (≈ 0.116 µM) in test [1]; 0.016 µg/mL (≈ 0.0149 µM) in test [2]; 0.125 µg/mL (≈ 0.116 µM) in test [3]; 0.1 µg/mL in test [4]; 0.03 µg/mL in the test with M. xenopi (ATCC 19250); 3.9 µg/mL in the test with M. avium (ATCC 25291). For the same compound, the results for the MIC (in the test with M. kansasii (ATCC 12478); in test [5]) were 0.01 µg/mL and 0.003 µg/mL (≈ 0.00279 µM), respectively.

Take `CO[C@H]1/C=C/O[C@@]2(C)Oc3c(C)c(O)c4c(c3C2=O)C2=NC3(CCN(CC(C)C)CC3)NC2=C(NC(=O)/C(C)=C\C=C\[C@H](C)[C@H](O)[C@@H](C)[C@@H](O)[C@@H](C)[C@H](OC(=O)CN2CCC(NS(=O)(=O)c3ccccc3)CC2)[C@@H]1C)C4=O` [Compound 29]: the MIC turned out to be 0.5 µg/mL (≈ 0.461 µM) in test [1]; 0.03 µg/mL (≈ 0.0276 µM) in test [2]; 0.25 µg/mL (≈ 0.23 µM) in test [3] (setting [6]); 0.09 µg/mL in test [4]; 0.01 µg/mL in the test on M. xenopi (ATCC 19250); 0.6 µg/mL with M. avium (ATCC 25291). Further, the MIC was found to be 0.01 µg/mL in the test on M. kansasii (ATCC 12478) and 0.003 µg/mL (≈ 0.00276 µM) in test [5].

Regarding `CO[C@H]1/C=C/O[C@@]2(C)Oc3c(C)c(O)c4c(c3C2=O)C2=NC3(CCN(CC(C)C)CC3)NC2=C(NC(=O)/C(C)=C\C=C\[C@H](C)[C@H](O)[C@@H](C)[C@@H](O)[C@@H](C)[C@H](OC(=O)CN2CCc3[nH]c5ccccc5c3C2)[C@@H]1C)C4=O` [Compound 33], the MIC in test [1] came out at 1 µg/mL (≈ 0.983 µM); in test [2], 0.125 µg/mL (≈ 0.123 µM); in test [3] (setting [6]) it was 0.5 µg/mL (≈ 0.492 µM); in test [4] it was 0.1 µg/mL; in the test with M. xenopi (ATCC 19250), 0.7 µg/mL; with M. avium (ATCC 25291), 0.3 µg/mL. The MIC turned out to be 0.01 µg/mL in the test with M. kansasii (ATCC 12478) and 0.008 µg/mL (≈ 0.00786 µM) in test [5].
